Assay results taken from patent publication US20170007620A1 (priority 2015, published 2017).
“Also recorded” adds a separate entry of the source.

Tests used:
[1] = test system: one carbon pool products (AMP, ADP, ATP); assay: One carbon pool products (AMP, ADP, ATP) in lymphocytes during DHEA-mediated EGSS (FIG. 5); details: DHEA 10 mg/kg daily per os 90 days ± reconstitution regimen
BH4 = test system: BH4; set-up: species or system dogs; details: dog, in vivo
IPA = IPA / isopentenylated tRNA quantitation in buffy coat lymphocytes of DHEA-treated neutered dogs (FIG. 3); format: in vivo
Description: (§1) FIG. 3. […] BH4 was assayed by the method of Niederwieser, A. et. al. (J Chromatogr. 1984 May 4; 290:237-46). For IPA quantitation, preliminary in vitro studies were performed in which DHEA-treated and control HT-29SF cells were exposed to [^3H]-mevalonic acid (saponified; data not shown). Total RNA was then isolated using the guanidinium thiocyanate method, hydrolyzed to free bases and isolated on an Aminex A9 column, with UV detection, as previously described (Nyce, J et. al., Proc Natl Acad Sci USA. 1993 Apr. 1; 90(7):2960-4). Increased incorporation of [^3H]-mevalonic acid into isopentenyladenosine peaks was interpreted as reduced pools of free unlabeled IPA into which the [^3H]-IPA equilibrated with high specific activity. (See Shultz and Nyce, Cancer Research 51(24):6563-7, 1992). This was borne out in in vivo experiments in neutered dogs treated with DHEA in which buffy coat lymphocytes were extracted and IPA quantitated with UV detection using the same HPLC procedure. […] Ubiquinone concentrations were quantitated from buffy coat samples by HPLC via the method of Abe, K. et. al., (J Nutr Sci Vitaminol (Tokyo). 1978; 24(6):555-67). For ease of presentation, pretreatment values for all 3 determinations (BH4, IPA and ubiquinone) were given a value of 1, with treatment values presented as their respective fraction thereof. […]

ubiquinone = assay: Ubiquinone concentrations in buffy coat samples of DHEA-treated neutered dogs (FIG. 3); format: in vivo
Description: as §1

serotonin = assay: Serotonin in intestinal mucosa biopsies of DHEA-treated neutered dogs (FIG. 7); format: in vivo; details: DHEA 10 mg/kg daily for 90 days ± supplementation
Description: The procedure of D'Souza, L and Glueck, H (Thromb Haemost. 1977 Dec. 15; 38(4):990-1001) was used to quantitate serotonin in intestinal biopsies obtained from neutered male and female dogs. Ten mg of intestinal mucosa was analyzed for each animal. […] Results are presented as percentage of values in pretreatment dogs, mean±SEM. MNSer, serotonin levels as quantitated in neutered male dogs; FNSer, serotonin levels as quantitated in female neutered dogs.

norepinephrine = assay: Urinary free norepinephrine in neutered dogs undergoing DHEA-mediated EGSS (FIG. 9); format: in vivo; details: 24 hour urine, DHEA 10 mg/kg 90 days ± reconstitution regimen
Description: FIG. 9. […] Urinary free norepinephrine was quantitated by the method of Mell, L D and Gustafson, A B (Clin Chem 23(3): 473-6, 1977), using a Waters HPLC system with a C18 reverse phase column and UV detector. 24 hour urine was collected from neutered male and female animals in amber glass containment vessels. To 100 ml of urine was added 1 ml of concentrated HCL as preservative. […] This treatment continued for 90 days, at which time further urine specimens were collected and assayed for norepinephrine. The data are reported as the mean±SEM. MNNor, norepinephrine levels as quantitated in neutered male dogs; FNNor, norepinephrine levels as quantitated in neutered female dogs.

NO = assay: Nitric oxide depletion and replenishment during DHEA-mediated EGSS; format: in vivo; details: animals undergoing DHEA-mediated EGSS
phenylalanine = assay: Plasma phenylalanine in DHEA-treated neutered dogs (FIG. 10); details: DHEA-treated neutered dogs ± reconstitution protocol
Description: Before treatment, 10-15 ml blood samples were taken from male and female neutered dogs, and plasma was collected by low speed centrifugation by the standard method. The method of Neckers, L M et. al. (Clin Chem 27(1):146-8, 1981) was used to quantitate plasma phenylalanine concentrations, with fluorometric detection (280 nm excitation, 330 nm emission), and a 10 ul injection volume.

estrogen = assay: Fecal estrogen in neutered female dogs before and after DHEA-mediated EGSS (FIG. 2); details: feces, DHEA 10 mg/kg p.o.
Description: Analyses were made in serum isolated from 4 intact male and 4 neutered male dogs of mixed breed, and in 3 intact female and 4 neutered female dogs of mixed breed. All were between 12 months and 24 months of age, and between 10 and 25 kg. […] For female dogs, estrogen was measured in anestrous for intact dogs. For both intact and neutered female dogs, the feces were collected over a period of 30 days, and thereafter the estrogens were extracted and quantitated using the procedure of Hofmann and Mostl (J Reprod Fertil Suppl 57:67-70, 2001). Results are reported as mean±SEM.
Comparison of testosterone and estrogen in neutered male and female dogs, respectively, before and after DHEA-mediated EGSS. The same neutered dogs from FIG. 1 were utilized. The same methodology was utilized as in FIG. 1. Dogs were exposed to escalating doses of DHEA until normal or near normal levels of testosterone or estradiol were achieved. […] Results are reported as the mean±SEM.

[2] = test system: neutered mixed breed dogs; assay: Physical symptoms / side effects of DHEA-mediated EGSS with and without reconstitution protocol (Table 1)
Description: Physical symptoms associated with DHEA-mediated EGSS-induced Nitric Oxide (NO) depletion.

statin-treated cells = details: cited from earlier work
[3] = animals undergoing DHEA-mediated EGSS

With Nc1nc(=O)c2c([nH]1)NCC(CNc1ccc(C(=O)N[C@@H](CCC(=O)O)C(=O)O)cc1)N2C=O (mixture of isomers) [folinic acid] the “one carbon pool products (purines, pyrimidines, S-adenosylmethionine; AMP, ADP, ATP)” value [1] was “reconstitution”.
For C[C@]12CC[C@H](O)CC1=CC[C@@H]1[C@@H]2CC[C@]2(C)C(=O)CC[C@@H]12 [DHEA, Dehydroepiandrosterone], the BH4 level (BH4) was “depleted”, the IPA level (IPA; exogenous DHEA in amounts sufficient to induce EGSS) was “becomes depleted” and the “total pools of isopentenylated tRNA” value (IPA; neutered dogs treated with DHEA, buffy coat lymphocytes, HPLC UV) was “found to be depleted”. For the same compound, the “ubiquinone levels, continuous treatment” value (ubiquinone; continuous DHEA at doses capable of inducing EGSS, with or without supplementation) was “decline”, the “ubiquinone levels, short term” value (ubiquinone; short term DHEA exposure) was “increased” and the serotonin level (serotonin) was “Depletion”. The urinary norepinephrine (norepinephrine) was “Depletion”, the NO level (NO) was “depleted” and the plasma phenylalanine levels (phenylalanine) was “Increase”. The estrogen level (estrogen) was “increases”, the “one carbon pool products (purines, pyrimidines, S-adenosylmethionine; AMP, ADP, ATP)” value [1] was “profoundly depleted; also recorded: Depletion” and the motor incoordination [2, 3] was “sometimes occurs”. For the same compound, the lower extremity neuropathy ([2]; animals undergoing DHEA-mediated EGSS with or without supplementation) was “observed”, the “susceptibility to infections, particularly ear and eye” value ([2]; dogs and cats, DHEA in amounts sufficient to induce EGSS) was “have been noted” and the fluid retention ([2]; dogs, DHEA in amounts sufficient to induce EGSS) was “has been observed”. For the same compound, the “side effects of DHEA-mediated EGSS” value ([2]; doses required to induce EGSS in neutered animals) was “capable of causing many serious side effects; also recorded: auto-inflammatory-like disorder” and the vascular effects ([2]; during DHEA-mediated EGSS) was “induction of vasoconstriction”.
For CC(C)=CCNc1ncnc2nc[nH]c12 [Isopentenyladenine], the “activity in restoring DNA synthesis relative to mevalonate” value (statin-treated cells) is listed as “approximately 100 fold”.
For N[C@@H](Cc1ccc(O)c(O)c1)C(=O)O [L-DOPA], the emesis ([2]; dogs, alternative protocol with L-DOPA, pyridoxine, ascorbate, SAMe) was “emesis in some dogs”.
With O=[N+]([O-])[O-].[K+] [potassium nitrate] the NO level (NO) was “can replenish NO” and the “symptoms associated with NO depletion” value [2, 3] was “eliminating the symptoms”.
